Legend:
[1] = molecular target: recombinant human COX-1 (Homo sapiens, UniProt P23219); assay: In vitro enzyme assay, recombinant human COX-1; type: biochemical; conditions: read-out: IC50 against recombinant human COX-1
[2] = system: rat liver microsomes; assay: Glucuronidation by rat liver microsomes; type: in vitro ADME
Method: (§1) FIG. 5A is a bar graph illustrating in vitro metabolism of phenolics via glucuronidation pathway. Glucuronidation rates of all the new locally bioavailable COX-2 inhibitors by rat liver microsomes. Additional metabolic rates of various locally bioavailable COX-2 inhibitors are in Table 3. […]. The incubation systems were: for glucuronidation, 0.88 mM magnesium chloride (MgCl2), 4.4 mM saccharolactone, 0.022 mg/mL alamethicin, 3.5 mM uridine 5′-diphospho-glucuronic acid (UDPGA), 10 μM substrates and different concentrations of microsomes in 50 mM potassium phosphate buffer (pH 7.4); for sulfation, 10 mM dithiothreitol (DTT), 5 mM MgCl2, 100 μM 3′-phosphoadenosine-5′-phosphosulfate (PAPS),10 μM substrate and different concentrations of S9 fractions in 50 mM potassium phosphate buffer (pH 7.4).
(§2) In vitro tools were employed to help predict the in vivo metabolism rates of the COX-2 inhibitors that are phenolics. The microsomes and S9 fractions prepared from colon or liver were used to determine the in vivo glucuronidation and sulfation rates of the phenolic compounds, respectively. By employing microsomes and S9 fractions prepared from both rats and humans, it could be determined if the results obtained in the rat model could be reasonably extrapolated to humans. In these experiments, raloxifene and genistein, two phenolic compounds which undergo extensive first-pass metabolism, were selected as controls.

[3] = system: rat colon microsomes; assay: Glucuronidation by rat colon microsomes; type: in vitro ADME
Method: as §1, with “5B” for “5A”, “glucuronidation” for “metabolism”, “in liver and colon microsomes of rats.” for “via glucuronidation pathway.”, “6a1-6a4” for “all the new locally bioavailable COX-2 inhibitors”, “and colon microsomes were measured.” for “microsomes.”, “(PAPS), 10” for “(PAPS),10”
as §2

[4] = system: human liver microsomes; assay: Glucuronidation by human liver microsomes; type: in vitro ADME
Method: as §1, with “FIG. 5D” for “FIG. 5A”, “of phenolics.” for “of phenolics via glucuronidation pathway.”, “of 6a1-6a4” for “of all the new locally bioavailable COX-2 inhibitors”, “by human” for “by rat”, “liver and intestinal” for “liver”, “Table 4.” for “Table 3.”
as §2

[5] = system: human intestine microsomes; assay: Glucuronidation by human intestine microsomes; type: in vitro ADME
Method: as §1, with “FIG. 5D” for “FIG. 5A”, “of phenolics.” for “of phenolics via glucuronidation pathway.”, “of 6a1-6a4” for “of all the new locally bioavailable COX-2 inhibitors”, “by human” for “by rat”, “liver and intestinal” for “liver”, “Table 4.” for “Table 3.”
as §2

[6] = system: human Colon S9; assay: Glucuronidation by human colon S9; type: in vitro ADME; conditions: substrate 10 μM
Method: as §1, with “FIG. 5D” for “FIG. 5A”, “of phenolics.” for “of phenolics via glucuronidation pathway.”, “of 6a1-6a4” for “of all the new locally bioavailable COX-2 inhibitors”, “by human” for “by rat”, “liver and intestinal” for “liver”, “Table 4.” for “Table 3.”
as §2, with “The microsomes and S9 fractions prepared from colon or liver were used to determine the in vivo glucuronidation and sulfation rates of the phenolic compounds, respectively.” left out

[7] = system: human Colon S9; assay: Sulfation by human colon S9; type: in vitro ADME; conditions: substrate 10 μM
Method: as §1, with “FIG. 5D” for “FIG. 5A”, “of phenolics.” for “of phenolics via glucuronidation pathway.”, “of 6a1-6a4” for “of all the new locally bioavailable COX-2 inhibitors”, “by human” for “by rat”, “liver and intestinal” for “liver”, “Table 4.” for “Table 3.”
as §2

[8] = system: Caco-2 cell monolayer; assay: Metabolism and transport across Caco-2 cell monolayers; type: in vitro ADME, human; conditions: 0-8 hours
Method: The Caco-2 cell monolayer is a well-established FDA-recognized model to study the absorption, transport, and metabolism of drugs in the human gastrointestinal tract. This allows for prediction of the disposition of the new compounds in colonic epithelium that is also undergoing carcinogenesis, because Caco-2 is a human colorectal cancer cell line.
After 10 μM 6a1 was applied to the apical or basolateral side of the Caco-2 monolayer model, the concentrations of 6a1 and its main phase II metabolites, glucuronide and sulfate, were monitored at both sides (FIG. 6A-D). The concentration of aglycone was also monitored at both sides. […] The majority of sulfates were effluxed to the apical side, while less was transported to the basolateral side. The amount of glucuronide generated by Caco-2 cells was much less than that of sulfates. The glucuronide was also transported to both sides.

[9] = Solubility in HBSS with or without β-cyclodextrin; type: physicochemical
[10] = rat, in vivo
Method: For this purpose, blood samples were collected from each rat every hour during the perfusion period, and the bile samples were also collected by cannulating the bile duct.
By comparing the 6a1 concentrations in the input and output perfusate containing β-CD-formulated 6a1, the amounts of 6a1 absorbed from the colon were calculated for each hour during the perfusion period (FIG. 10B).

[11] = rat, in vivo, po, 20 mg/kg
Method: The drugs were dispersed in ORA-PLUS® suspension vehicle (from Paddock Laboratories, Minneapolis, Minn.) and administrated to SD rats by oral gavage. The blood samples were collected from the tail tips at different time points.
Therefore, 20 mg/kg 6a1 was administered in suspension vehicle to the proximal colon of SD rats via a catheter reaching approximately 8 cm deep into the anus.

Sequence of recombinant human COX-1 (P23219 24-599): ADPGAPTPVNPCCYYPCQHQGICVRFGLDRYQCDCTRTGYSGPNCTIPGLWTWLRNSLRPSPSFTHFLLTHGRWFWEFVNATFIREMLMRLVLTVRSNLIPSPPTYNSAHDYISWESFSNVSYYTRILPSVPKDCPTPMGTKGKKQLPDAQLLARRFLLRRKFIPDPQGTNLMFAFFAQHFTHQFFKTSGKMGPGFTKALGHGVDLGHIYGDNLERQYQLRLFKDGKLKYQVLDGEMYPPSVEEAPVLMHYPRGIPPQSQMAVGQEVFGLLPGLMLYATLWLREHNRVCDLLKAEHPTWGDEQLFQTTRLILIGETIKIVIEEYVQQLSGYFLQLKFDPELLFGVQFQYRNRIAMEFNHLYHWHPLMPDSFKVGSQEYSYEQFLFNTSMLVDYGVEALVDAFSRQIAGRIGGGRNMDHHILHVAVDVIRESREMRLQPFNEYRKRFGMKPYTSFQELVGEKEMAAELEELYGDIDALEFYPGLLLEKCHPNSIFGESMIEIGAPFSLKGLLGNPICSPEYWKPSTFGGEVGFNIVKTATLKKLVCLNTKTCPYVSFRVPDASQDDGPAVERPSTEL

| IC50 [1] [µM] | Glucuronidation by rat liver microsomes (FIG. 5A) [2] | Glucuronidation rates by liver microsomes (Mean) [2] [pmol/mg/min] | Glucuronidation rates by colon microsomes (Mean) [3] [pmol/mg/min] | Glucuronidation rates by liver microsomes (Mean) [4] [pmol/mg/min] | Glucuronidation rates by intestine microsomes (Mean) [5] [pmol/mg/min] | Glucuronidation rates by human Colon S9 (Mean) [6] [pmol/mg/min] | Sulfation rates by human Colon S9 (Mean) [7] [pmol/mg/min] | Phase II conjugation inside Caco-2 cells ([8]; 10 μM) | Osmotic pressure of the solution ([9]; 6a1 in HBSS with 4 mM β-CD) [mOsm/kg] | Solubility in HBSS ([9]; in the presence of 4 mM β-CD, after sonication and centrifuge) [µM] | 6a1-glucuronide concentration in bile [10] | Absorbed amount recovered from bile as glucuronides [10] | Fraction absorbed in the colon that escaped first-pass metabolism in the liver [10] | Fraction of total perfused amount absorbed in the colon [10] | Peak blood concentration [11] [µM] | Structure (SMILES) | Permeation of the Caco-2 cell membrane ([8]; 10 μM applied to apical or basolateral side) |
| --- | --- | --- | --- | --- | --- | --- | --- | --- | --- | --- | --- | --- | --- | --- | --- | --- | --- |
| 5.13 | rapidly glucuronidated | 6299 | 1111 | 11576 | 2786 | 1080 | 110 | rapidly conjugated by UGTs and SULTs | 290 | 70 | more than 200 μM | approximately 75% | less than 1% | Approximately 13% | – | Cc1ccc(-c2cc(COc3ccccc3O)nn2-c2ccc(S(N)(=O)=O)cc2)cc1 [Compound 6a1] | permeated the Caco-2 cell membrane easily |
| 27.2 | rapidly glucuronidated | 3570 | 1199 | 1512 | 924 | – | – | – | – | – | – | – | – | – | – | Cc1ccc(-c2cc(COc3cccc(O)c3)nn2-c2ccc(S(N)(=O)=O)cc2)cc1 [Compound 6a2] | – |
| 38.2 | – | 590 | 301 | 60 | 45 | – | – | – | – | – | – | – | – | – | 1.69 | Cc1ccc(-c2cc(COc3ccc(O)cc3)nn2-c2ccc(S(N)(=O)=O)cc2)cc1 [Compound 6a3] | – |
